Reference: ChEMBL document CHEMBL3044875, “Synthesis and antimicrobial activity of some bisoctahydroxanthene-1,8-dione derivatives” (2011)

Legend:
Format in all cases: functional
Proteus vulgaris = experiment: Antibacterial activity against Proteus vulgaris NRRL-B-123 at 10 ug/disk after 24 hr by disk diffusion method; details: NRRL-B-123, 24 h, read-out: DIZ
Pseudomonas aeruginosa = experiment: Antibacterial activity against Pseudomonas aeruginosa ATCC 27853 at 10 ug/disk after 24 hr by disk-diffusion method; details: ATCC 27853, 24 h, read-out: DIZ
Escherichia coli = experiment: Antibacterial activity against Escherichia coli ATCC 25922 at 10 ug/disk after 24 hr by disk-diffusion method; details: ATCC 25922, 24 h, read-out: DIZ
Nocardia = experiment: Antibacterial activity against Nocardia canis at 10 ug/disk after 24 hr by disk diffusion method; details: read-out: DIZ
[1] = system: Staphylococcus epidermidis; experiment: Antibacterial activity against Staphylococcus epidermidis ATCC 12228 at 10 ug/disk after 24 hr by disk diffusion method; details: ATCC 12228, 24 h, read-out: DIZ
Bacillus cereus = experiment: Antibacterial activity against Bacillus cereus NRRL 3711 at 10 ug/disk after 24 hr by disk diffusion method; details: NRRL 3711, 24 h, read-out: DIZ
Staphylococcus aureus = experiment: Antibacterial activity against Staphylococcus aureus ATCC 25923 at 10 ug/disc after 24 hr by disk diffusion method; details: ATCC 25923, 24 h, read-out: DIZ

CN(C)[C@@H]1C(O)=C(C(N)=O)C(=O)[C@@]2(O)C(O)=C3C(=O)c4c(O)cccc4[C@@](C)(O)[C@H]3C[C@@H]12 [TETRACYCLINE]
zone of inhibition at 10 µg/disc (Proteus vulgaris): 15 mm
zone of inhibition at 10 µg/disc (Pseudomonas aeruginosa): 13 mm
zone of inhibition at 10 µg/disc (Escherichia coli): 25 mm
zone of inhibition at 10 µg/disc (Nocardia): 14 mm
zone of inhibition at 10 µg/disc [1]: 15 mm
zone of inhibition at 10 µg/disc (Bacillus cereus): 28 mm
zone of inhibition at 10 µg/disc (Staphylococcus aureus): 40 mm
